Laboratory results as given in patent US6583309B1 (University of Medicine and Dentistry of New Jersey, priority 1999, dated 2003).

biological target: TAR RNA; assay: In vitro binding of resin-bound compounds to TAR RNA (OD260 of unbound RNA); set-up: species or system HIV; settings: in vitro assay; compounds of formula I on TentaGel beads incubated with TAR RNA overnight at 4° C. in TK buffer; read-out: Kd (nM), binding constants
Description: Binding of compounds of formula I and V to TAR RNA was measured by evaluating their inhibition of TAR-TAT complex formation in the presence of increasing levels of the compound to be tested. The compounds of formula I were tested in an in vitro assay; the compounds of formula V were tested in an in vivo assay.
The TAR RNA used corresponds to the minimal sequence required for TAT responsiveness in vivo. This 29-residue oligonucleotide has the sequence: 5′-[…]-3′ (SEQ ID NO.: 1). TAR RNA was prepared by in vitro transcription. A “top strand” single-stranded DNA oligomer having the sequence 5′-TAATACGACTCACTATAG-3′ (SEQ ID NO.: 2) was annealed to a “bottom strand” single-stranded DNA template having the following sequence: 3′-[…]-5′ (SEQ ID NO.: 3), thereby generating a double-stranded region corresponding to a promoter sequence recognized by T7 RNA polymerase. Transcription was carried out in transcription buffer (40 mM Tris-HCl, pH 8.1, 1 mM spermidine, 0.01% Triton®X-100, 5 mM dithiothreitol, 4 mM each of ATP, GTP, CTP, and UTP at 37° C. for 4 to 5 hours. Reactions were performed in a volume of 0.02 ml containing 8 pmole of template (top strand annealed to bottom strand) and 40 to 60 units of T7 RNA polymerase. Transcription was terminated by adding an equal volume of loading buffer (9M urea, 1 mmol EDTA, 0.1M bromophenol blue in 1XTBE buffer; TBE is 45 mmol trisborate at pH 8). Product RNA was purified by electrophoresis through a denaturing 20% polyacrylamide gel containing 8M urea. RNA was extracted from the gel, precipitated, dissolved in dithylpyrocarbonate-treated water, and stored at −20° C. until used.
In vitro assay conditions: Compounds AA-DU were synthesized on TentaGel S—NH2 (4.6 mmole). All Fmoc-amino acids were purchased from Bachem (Torrance, Calif.). 1-hydroxybenzotriazole (HOBT) and diisopropylcarbodiimide (DIPCDI) were obtained from Aldrich Chemical Co., Milwalkee, Wis. Piperidine and trifluoroacetic acid were purchased from Applied Biosystems Division, Perkin-Elmer. Compounds AA-DU were synthesized manually according to standard solid-phase peptide synthesis protocols. Coupling efficiencies of residues at each step were monitored by Kaiser test. Deprotection of trimer peptides was carried out in 10% water in trifluoroacetic acid (1 mL) for 16 hours at room temperature. After filtration of solvents, the resin was washed with water (1 mL×4), DMF (1 mL×4), dichloromethane (1 mL×4), and dried under reduced pressure. The compounds attached to the resin (10 beads) were placed in an Eppendorf tube and washed with TK buffer ([…]). The beads were suspended in TK buffer ([…]) and incubated with TAR RNA ([…]) overnight at 4° C. The suspension was centrifuged and the supernatant containing unbound RNA was transferred to a cuvette for OD260 measurements. The UV absorbance was measured by a Shimadzu UV-1601 spectrometer. Equilibrium concentrations of RNA were determined from these measurements. Given that the initial concentrations of ligand and RNA are known, and assuming simple bimolecular receptor/substrate binding, dissociation constant (KD) was calculated from straightforward equations.

Row | Structure (SMILES) | Kd [nM]
1 | NCCCC[C@@H](COC(N)=O)NC(=O)OC[C@@H](CCCCN)NC(=O)[C@H](N)CCCCN (stereo in doubt) [Compound CD, Carbamic acid 6-amino-2-[6-amino-2-(2,6-diamino-hexanoylamino)-hexyloxycarbonylamino]-hexyl ester] | 567
2 | NCCCC[C@H](N)COC(=O)N[C@@H](CCCCN)COC(=O)N[C@@H](CCCCN)COC(N)=O (stereo in doubt) [Compound CJ, Carbamic acid 6-amino-2-[6-amino-2-(2,6-diamino-hexyloxycarbonylamino)-hexyloxycarbonylamino]-hexyl ester] | 1260
3 | NCCCC[C@H](N)COC(=O)N[C@H](CCCCN)COC(=O)N[C@H](CCCCN)COC(N)=O [Compound AA, Carbamic acid 6-amino-2-[6-amino-2-(2,6-diamino-hexyloxycarbonylamino)-hexyloxycarbonylamino]-hexyl ester] | 639
4 | NCCCC[C@@H](N)COC(=O)N[C@H](CCCCN)COC(=O)N[C@H](CCCCN)COC(N)=O [Compound AB, Carbamic acid 6-amino-2-[6-amino-2-(2,6-diamino-hexyloxycarbonylamino)-hexyloxycarbonylamino]-hexyl ester] | 523
5 | NCCCC[C@H](COC(N)=O)NC(=O)OC[C@@H](CCCCN)NC(=O)[C@H](N)CCCCN [Compound AD, Carbamic acid 6-amino-2-[6-amino-2-(2,6-diamino-hexanoylamino)-hexyloxycarbonylamino]-hexyl ester] | 2080
6 | NCCCCCNCC(=O)N[C@H](CCCCN)COC(=O)N[C@H](CCCCN)COC(N)=O [Compound AE, Carbamic acid 6-amino-2-{6-amino-2-[2-(5-amino-pentylamino)-acetylamino]-hexyloxycarbonylamino}-hexyl ester] | 1110
7 | NCCCCCCCNCC(=O)N[C@H](CCCCN)COC(=O)N[C@H](CCCCN)COC(N)=O [Compound AF, Carbamic acid 6-amino-2-{6-amino-2-[2-(7-amino-heptylamino)-acetylamino]-hexyloxycarbonylamino}-hexyl ester] | 491
8 | N=C(N)NCCC[C@H](N)COC(=O)N[C@H](CCCCN)COC(=O)N[C@H](CCCCN)COC(N)=O [Compound AH, Carbamic acid 6-amino-2-[6-amino-2-(2-amino-5-guanidino-pentyloxycarbonylamino)-hexyloxycarbonylamino]-hexyl ester] | 460
9 | NCCCC[C@H](COC(N)=O)NC(=O)OC[C@@H](CCCCN)NC(=O)OC[C@H](N)CCC(N)=O [Compound AI, Carbamic acid 6-amino-2-[6-amino-2-(2-amino-4-carbamoyl-butoxycarbonylamino)-hexyloxycarbonylamino]-hexyl ester] | 603
10 | NCCCC[C@H](N)COC(=O)N[C@@H](CCCCN)COC(=O)N[C@H](CCCCN)COC(N)=O [Compound AJ, Carbamic acid 6-amino-2-[6-amino-2-(2,6-diamino-hexyloxycarbonylamino)-hexyloxycarbonylamino]-hexyl ester] | 4310
11 | NCCCC[C@@H](N)COC(=O)N[C@@H](CCCCN)COC(=O)N[C@H](CCCCN)COC(N)=O [Compound AK, Carbamic acid 6-amino-2-[6-amino-2-(2,6-diamino-hexyloxycarbonylamino)-hexyloxycarbonylamino]-hexyl ester] | 1720
12 | NCCCC[C@H](COC(N)=O)NC(=O)OC[C@H](CCCCN)NC(=O)[C@@H](N)CCCCN [Compound AL, Carbamic acid 6-amino-2-[6-amino-2-(2,6-diamino-hexanoylamino)-hexyloxycarbonylamino]-hexyl ester] | 2720
13 | NCCCCNCC(=O)N[C@@H](CCCCN)COC(=O)N[C@H](CCCCN)COC(N)=O [Compound AP, Carbamic acid 6-amino-2-{6-amino-2-[2-(4-amino-butylamino)-acetylamino]-hexyloxycarbonylamino}-hexyl ester] | 1490
14 | N=C(N)NCCC[C@H](N)COC(=O)N[C@@H](CCCCN)COC(=O)N[C@H](CCCCN)COC(N)=O [Compound AQ, Carbamic acid 6-amino-2-[6-amino-2-(2-amino-5-guanidino-pentyloxycarbonylamino)-hexyloxycarbonylamino]-hexyl ester] | 2080
15 | NCCCC[C@H](COC(N)=O)NC(=O)OC[C@H](CCCCN)NC(=O)OC[C@H](N)CCC(N)=O [Compound AR, Carbamic acid 6-amino-2-[6-amino-2-(2-amino-4-carbamoyl-butoxycarbonylamino)-hexyloxycarbonylamino]-hexyl ester] | 376

Further lines, results first:

Row | Kd [nM] | Structure (SMILES)
16 | 183 | NCCCC[C@H](COC(N)=O)NC(=O)OC[C@H](CCCCN)NC(=O)[C@H](N)CCCCN (stereo in doubt) [Compound AM, Carbamic acid 6-amino-2-[6-amino-2-(2,6-diamino-hexanoylamino)-hexyloxycarbonylamino]-hexyl ester]
17 | 147 | NCCCC[C@H](N)COC(=O)N(CCCCN)CC(=O)N[C@H](CCCCN)COC(N)=O (stereo in doubt) [Compound AS, Carbamic acid 6-amino-2-{2-[(4-amino-butyl)-(2,6-diamino-hexyloxycarbonyl)-amino]-acetylamino}-hexyl ester]
18 | 183 | NCCCCCN(CC(=O)N[C@H](CCCCN)COC(N)=O)C(=O)OC[C@H](N)CCCCN (stereo in doubt) [Compound BC, Carbamic acid 6-amino-2-{2-[(5-amino-pentyl)-(2,6-diamino-hexyloxycarbonyl)-amino]-acetylamino}-hexyl ester]
19 | 202 | NCCCC[C@H](N)COC(=O)N[C@@H](CCCCN)C(=O)N[C@H](CCCCN)COC(N)=O (stereo in doubt) [Compound BT, Carbamic acid 6-amino-2-[6-amino-2-(2,6-diamino-hexyloxycarbonylamino)-hexanoylamino]-hexyl ester]
20 | 403 | NCCCC[C@H](COC(N)=O)NC(=O)[C@H](CCCCN)NC(=O)[C@@H](N)CCCCN (stereo in doubt) [Compound BV, Carbamic acid 6-amino-2-[6-amino-2-(2,6-diamino-hexanoylamino)-hexanoylamino]-hexyl ester]
21 | 130 | NCCCC[C@@H](COC(N)=O)NC(=O)OC[C@H](CCCCN)NC(=O)[C@@H](N)CCCCN (stereo in doubt) [Compound CL, Carbamic acid 6-amino-2-[6-amino-2-(2,6-diamino-hexanoylamino)-hexyloxycarbonylamino]-hexyl ester]
22 | 215 | NCCCC[C@H](COC(N)=O)NC(=O)OC[C@@H](CCCCN)NC(=O)[C@@H](N)CCCCN [Compound AC, Carbamic acid 6-amino-2-[6-amino-2-(2,6-diamino-hexanoylamino)-hexyloxycarbonylamino]-hexyl ester]
23 | 403 | NCCCCNCC(=O)N[C@H](CCCCN)COC(=O)N[C@H](CCCCN)COC(N)=O [Compound AG, Carbamic acid 6-amino-2-{6-amino-2-[2-(4-amino-butylamino)-acetylamino]-hexyloxycarbonylamino}-hexyl ester]
24 | 183 | NCCCCCNCC(=O)N[C@@H](CCCCN)COC(=O)N[C@H](CCCCN)COC(N)=O [Compound AN, Carbamic acid 6-amino-2-{6-amino-2-[2-(5-amino-pentylamino)-acetylamino]-hexyloxycarbonylamino}-hexyl ester]
25 | 120 | NCCCCCCCNCC(=O)N[C@@H](CCCCN)COC(=O)N[C@H](CCCCN)COC(N)=O [Compound AO, Carbamic acid 6-amino-2-{6-amino-2-[2-(7-amino-heptylamino)-acetylamino]-hexyloxycarbonylamino}-hexyl ester]
26 | 165 | NCCCC[C@@H](N)COC(=O)N(CCCCN)CC(=O)N[C@H](CCCCN)COC(N)=O [Compound AT, Carbamic acid 6-amino-2-{2-[(4-amino-butyl)-(2,6-diamino-hexyloxycarbonyl)-amino]-acetylamino}-hexyl ester]
